Results from patent publication US20020035124A1, “Insecticidal and miticidal compositions” (priority 1996, published 2002).

Key:
[1] = test system: Kanzawa spider mite (Tetranychus kanzawai kishida) which are resistant to chlorfenapyr; assay: Miticidal effect against female imagines of chlorfenapyr-resistant Kanzawa spider mite (leaf disk spray test); settings: for LC50: single test compound, female imago, chlorfenapyr-resistant strain, mortality two days after spray treatment, probit analysis
Procedure: In this experiment, the miticidal effect against female imagines (adults) of Kanzawa spider mite (Tetranychus kanzawai kishida) which are resistant to chlorfenapyr is evaluated.
Round leaf disks (2 cm diameter) are cut out of a first leaf of kidney bean by a leaf punch and 4 sheets of the disks are placed on wet sanitary cotton in a plastic cup (8 cm diameter). On each leaf disk, 4 female imagines of Kanzawa spider mite (Tetranychus kanzawai kishida) which had acquired a strong resistance to chlorfenapyr are inoculated.
Each plastic cup is sprayed with 3.5 ml of a test solution with a rotary spray tower (Mizuho Scientific Co., Ltd.) and stored in a constant temperature chamber held at 25±1° C. (32 individuals are tested per concentration, 4-5 concentrations are evaluated per formulation and 2 performances are repeated). […] [formula] […]
The tested mite was a female image of the chlorfenapyr-resistant strain of Kanzawa spider mite which was obtained by a long artificial selection procedure against chlorfenapyr in a laboratory on a colony of Kanzawa spider mite which had been collected in the field.

[2] = test system: susceptible strain of spider mite; assay: LC50 against a susceptible strain of spider mite; format: in vivo

## CCC(C)c1ccccc1OC(=O)NC (centres unmarked) [BPMC, 2-sec-Butylphenyl-N-methylcarbamate]
[1]
  LC50: 3200 ppm

## CCOCn1c(-c2ccc(Cl)cc2)c(C#N)c(Br)c1C(F)(F)F [Chlorfenapyr, 4-Bromo-2-(4-chlorophenyl)-1-(ethoxymethyl)-5-(trifluoromethyl)pyrrole-3-carbonitrile]
[1]; LC50 resistant strain relative to susceptible strain
  resistance to chlorfenapyr of the resistant strain versus susceptible strain: ~300 fold
[1]
  LC50: 1500 ppm
[2]
  LC50: about 5 ppm

## CCSCc1ccccc1OC(=O)NC [Ethiofencarb, 2-(Ethylthiomethyl)phenyl methylcarbamate]
[1]
  LC50: 2100 ppm
